The source of these data is patent publication US5580552A, “7-glycosyloxybenzopyran derivative and antiallergic agent containing the derivative as active ingredient” (priority 1994, dated 1996).

For assay [1], the system named is homologous passive cutaneous anaphylaxis (PCA) reaction. In words: Effect on homologous passive cutaneous anaphylaxis (PCA) reaction in rats. Type of assay: in vivo, rats (male wistar). As to conditions: 50 mg/kg oral, 1 hour before challenge (TABLE 2); for inhibition in vivo at 50 mg/kg: Rattus norvegicus, po, 0.5 h. The essentials: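 Male Wistar rats sensitized intradermally with anti-DNP-As serum; 48 h later compound given orally at 50 mg/kg in 0.5% CMCNa. Challenge 1 h post-dose with i.v. TNP-As plus Evans Blue; extravasated dye measured at 30 min, inhibition versus vehicle group, n=5.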

The test system of assay [2] is contact dermatitis induced by picryl chloride. The experiment in a line: Effect on contact dermatitis induced by picryl chloride in mice. Type of assay: in vivo. The settings on record: 50 mg/kg oral, 1 hour before and 16 hours after challenge, 24 hours after challenge; for inhibition in vivo at 50 mg/kg: Mus musculus, po, 24 h, read-out: Inhibition (%) against the increase of ear thickness. The essentials: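 Mice sensitized on shaved abdomen with 7 mg picryl chloride in acetone, challenged 7 days later with 1% picryl chloride in olive oil on left ear. Compounds given orally at 50 mg/kg in 0.5% CMCNa 1 h before and 16 h after challenge. Ear thickness increase at 24 h vs pre-challenge; inhibition % relative to vehicle.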

For assay [3], the system named is experimental asthma model (airway resistance). In words: Effect on experimental asthma model in guinea pigs (airway resistance). It counts as in vivo, guinea pigs (male hartley). As to conditions: 50 mg/kg oral (TABLE 6); for inhibition in vivo at 50 mg/kg: Cavia porcellus, po, 0.5 h.

Regarding `C=COc1c(O)c(=O)oc2cc(O[C@@H]3O[C@H](CO)[C@@H](O)[C@H](O)[C@H]3O)ccc12` [compound 115], the inhibition in vivo at 50 mg/kg was determined as 42.2% in assay [1], 40.2% in assay [2] and 53.1% in assay [3].
Consider `CC(=O)Oc1c(OC(C)C)c2ccc(O[C@@H]3O[C@H](COCc4ccccc4)[C@@H](OCc4ccccc4)[C@H](OCc4ccccc4)[C@H]3OCc3ccccc3)cc2oc1=O` [compound 145], for which the figures for the inhibition in vivo at 50 mg/kg in assay [1], in assay [2] and in assay [3] were 40.2%, 42.1% and 41.9%, respectively.
In the same order, the values of `O=c1oc2cc(O[C@H]3O[C@H](CO)[C@@H](O)[C@H](O)[C@@H]3O)ccc2c(O)c1O` [compound 61] are 40.2%, 43.1% and 45.2%.
`CCCCCCCCCCOc1c(O)c2ccc(O[C@@H]3O[C@H](CO)[C@H](O)[C@H](O)[C@H]3O)cc2oc1=O` [compound 89]: the figures for the inhibition in vivo at 50 mg/kg in assay [1], in assay [2] and in assay [3] were 57.8%, 62.3% and 77.3%, respectively.
With `CC1CCC(Oc2c(O)c3ccc(O[C@@H]4O[C@H](CO)[C@H](O)[C@H](O)[C@H]4O)cc3oc2=O)CC1` (stereo partly drawn) [compound 92], the inhibition in vivo at 50 mg/kg was 58.9% in assay [1], 57.2% in assay [2] and 65.2% in assay [3].
As for `O=c1oc2cc(O[C@@H]3O[C@H](CO)[C@@H](O)[C@H](O)[C@H]3O)ccc2c(OCc2ccccc2)c1O` [compound 118], the “Inhibition (%) of PCA reaction” value in assay [1] came out at 41.2%. For the same molecule, the “Inhibition (%) against the increase of ear thickness” value in assay [2] came to 43.5%. In assay [3], the “Inhibition (%) of the airway resistance” value was determined as 45.3%.
On to `CCCCCCCCCCOc1c(O)c(=O)oc2cc(O[C@@H]3O[C@H](CO)[C@@H](O)[C@H](O)[C@H]3O)ccc12` [compound 111], for which the inhibition in vivo at 50 mg/kg in assay [1] turned out to be 43.1%; in assay [2], 41.2%; in assay [3], 61.3%.
For `CC(C)=CCC/C(C)=C/COc1c(O)c2ccc(O[C@@H]3O[C@H](CO)[C@H](O)[C@H](O)[C@H]3O)cc2oc1=O` [compound 95], the inhibition in vivo at 50 mg/kg in assay [1] turned out to be 54.2%; in assay [2], 55.8%; in assay [3], 63.2%.
Take `CC1CCC(Oc2c(O)c3ccc(O[C@@H]4O[C@H](CO)[C@@H](O)[C@H](O)[C@H]4O)cc3oc2=O)CC1` (stereo partly drawn) [compound 43]: the inhibition in vivo at 50 mg/kg amounted to 57.9% in assay [1], 55.4% in assay [2] and 70.7% in assay [3].
On to `CCCCCCCCOc1c(O)c(=O)oc2cc(O[C@@H]3O[C@H](CO)[C@H](O)[C@H](O)[C@H]3O)ccc12` [compound 23, 3-hydroxy-4-octyloxy-7-(β-D-galactopyranosyloxy)-2H-1-benzopyran-2-one], for which the inhibition in vivo at 50 mg/kg amounted to 44.7% in assay [1], 49.3% in assay [2] and 61.5% in assay [3].
`CC(C)Oc1c(O)c(=O)oc2cc(O[C@H]3O[C@H](CO)[C@@H](O)[C@H](O)[C@@H]3O)ccc12` [compound 135]: the results for the inhibition in vivo at 50 mg/kg in assay [1], in assay [2] and in assay [3] were 40.3%, 44.6% and 47.1%, respectively.
The corresponding values for `CCC=CCCOc1c(O)c(=O)oc2cc(O[C@H]3O[C@H](CO)[C@@H](O)[C@H](O)[C@@H]3O)ccc12` [compound 138] are 42.5%, 44.7% and 50.8%.
In the case of `CCCCCCOc1c(OCc2ccccc2)c2ccc(O[C@@H]3O[C@H](COC(C)=O)[C@H](OC(C)=O)[C@H](OC(C)=O)[C@H]3OC(C)=O)cc2oc1=O` [compound 75], the inhibition in vivo at 50 mg/kg in assay [1] is 45.5%; in assay [2], 40.3%; in assay [3], 43.5%.
For `C=COc1c(O)c2ccc(O[C@@H]3O[C@H](CO)[C@@H](O)[C@H](O)[C@H]3O)cc2oc1=O` [compound 44], the results for the inhibition in vivo at 50 mg/kg in assay [1], in assay [2] and in assay [3] were 54.5%, 56.3% and 65.1%, respectively.
